Reference: patent US9663494B2, “Inhibitors of bruton's tyrosine kinase” (Hoffmann-La Roche Inc., priority 2013, dated 2017)

Target: Bruton's Tyrosine Kinase (BTK), inactivated state (Homo sapiens (Human), UniProt Q06187)
Assay: Bruton's Tyrosine Kinase (BTK) Inhibition TR-FRET (Time Resolved FRET) competition assay
Assay type: binding
Settings: BTK-Eu / Kinase Tracer 178 competition, incubated 18-24 h at 14° C.
Method: 10) Add 50 μL microscint-20 and count ^33P cpm on scintillation counter. • Calculate percent activity from raw data in cpm percent activity=(sample−bkg)/(total activity−bkg)×100 • Calculate IC50 from percent activity, using one-site dose response sigmoidal model y=A+((B−A)/(1+((x/C)^D)))) • x=cmpd conc, y=% activity, A=min, B=max, C=IC50, D=1 (hill slope) Bruton's Tyrosine Kinase (BTK) Inhibition TR-FRET (Time Resolved FRET) Assay
This BTK competition assay measures compound potency (IC50) for the inactivated state of Bruton's Tyrosine Kinase using FRET (Förster/Flouresence Resonance Energy Transfer) technology. The BTK-Eu complex was incubated on ice one hour prior to use at a starting concentration of 50 nM BTK-Bioease™: 10 nM Eu-streptavidin (Perkin-Elmer Catalog# AD0062). The assay buffer consisted of 20 mM HEPES (pH 7.15), 0.1 mM DTT, 10 mM MgCl2, 0.5 mg/ml BSA with 3% Kinase Stabilizer (Fremont Biosolutions, Catalog # STB-K02). After 1 h, the reaction mixture from above was diluted 10 fold in assay buffer to make 5 nM BTK: 1 nM Eu-Streptavidin complex (donor fluorophore). 18 μl of a mixture of 0.11 nM BTK-Eu and 0.11 nM Kinase Tracer 178 (Invitrogen, Catalog # PV5593) with BTK-Eu alone as no negative control, was then dispensed into 384-well flat bottom plates (Greiner, 784076). Compounds to be tested in assay were prepared as 10× concentrations and serial dilution in half-log increments was performed in DMSO so as to generate 10 point curves. To initiate the FRET reaction, compounds prepared as 10× stock in DMSO was added to the plates and the plates were incubated 18-24 h at 14° C.

Bruton's Tyrosine Kinase (BTK), inactivated state, sequence (Q06187 whole entry): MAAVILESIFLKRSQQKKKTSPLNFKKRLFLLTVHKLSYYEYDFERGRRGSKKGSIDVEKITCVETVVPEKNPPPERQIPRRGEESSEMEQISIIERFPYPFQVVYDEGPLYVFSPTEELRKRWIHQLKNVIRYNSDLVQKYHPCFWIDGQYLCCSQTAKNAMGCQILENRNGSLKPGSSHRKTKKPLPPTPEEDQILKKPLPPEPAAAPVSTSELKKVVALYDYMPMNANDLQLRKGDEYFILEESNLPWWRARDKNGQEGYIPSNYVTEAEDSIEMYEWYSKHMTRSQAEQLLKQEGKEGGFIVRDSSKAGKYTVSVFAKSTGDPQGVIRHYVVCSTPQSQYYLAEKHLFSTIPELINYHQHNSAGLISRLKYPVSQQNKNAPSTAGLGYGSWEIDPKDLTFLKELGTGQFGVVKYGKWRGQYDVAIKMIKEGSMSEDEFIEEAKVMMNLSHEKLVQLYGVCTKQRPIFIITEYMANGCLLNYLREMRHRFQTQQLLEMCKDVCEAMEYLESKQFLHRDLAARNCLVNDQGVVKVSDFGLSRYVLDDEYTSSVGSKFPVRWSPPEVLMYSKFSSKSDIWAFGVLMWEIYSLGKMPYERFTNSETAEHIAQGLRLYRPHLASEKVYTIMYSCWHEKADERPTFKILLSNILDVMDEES

SMILES	IC50 [nM]
Cn1nc(-c2cccc(N3CCc4cc(C(C)(C)C#N)ccc4C3=O)c2CO)cc(Nc2ccc(C(=O)N3CCOCC3)cn2)c1=O [Compound 1, 2-[2-[2-(hydroxymethyl)-3-[1-methyl-5-[[5-(morpholine-4-carbonyl)pyridin-2-yl]amino]-6-oxopyridazin-3-yl]phenyl]-1-oxo-3,4-dihydroisoquinolin-6-yl]-2-methylpropanenitrile]	11.2
Cn1cc(-c2cccc(NC(=O)N3Cc4ccc(Cl)cc4C3)c2CO)cc(Nc2ccc(C(=O)N3CCOCC3)cn2)c1=O [Compound 4, 5-chloro-N-[2-(hydroxymethyl)-3-[1-methyl-5-[[5-(morpholine-4-carbonyl)pyridin-2-yl]amino]-6-oxopyridin-3-yl]phenyl]-1,3-dihydroisoindole-2-carboxamide]	31.9
Cn1nc(-c2cccc(N3CCc4cc(C(C)(C)C)ncc4C3=O)c2CO)cc(Nc2ccc(C(=O)N3CCOCC3)cn2)c1=O [Compound 6, 6-tert-butyl-2-[2-(hydroxymethyl)-3-[1-methyl-5-[[5-(morpholine-4-carbonyl)pyridin-2-yl]amino]-6-oxopyridazin-3-yl]phenyl]-3,4-dihydro-2,7-naphthyridin-1-one]	14.6
Cn1nc(-c2cccc(N3CCOc4cc(C(C)(C)CO)ccc4C3=O)c2CO)cc(Nc2ccc(S(C)(=O)=O)cn2)c1=O [Compound 3, 4-[2-(hydroxymethyl)-3-[1-methyl-5-[(5-methylsulfonylpyridin-2-yl)amino]-6-oxopyridazin-3-yl]phenyl]-8-(1-hydroxy-2-methylpropan-2-yl)-2,3-dihydro-1,4-benzoxazepin-5-one]	52.6
Cn1cc(-c2cccc(N3CCc4cc(C(C)(C)C)ncc4C3=O)c2CO)cc(Nc2ccc(C(=O)N3CCOCC3)cn2)c1=O [Compound 5, 6-tert-butyl-2-[2-(hydroxymethyl)-3-[1-methyl-5-[[5-(morpholine-4-carbonyl)pyridin-2-yl]amino]-6-oxopyridin-3-yl]phenyl]-3,4-dihydro-2,7-naphthyridin-1-one]	13.7

Molecules with a lower IC50, results first:

IC50 [nM]	SMILES
6.5	Cc1c(-c2cc(Nc3ccc(C(=O)N4CCOCC4)cn3)c(=O)n(C)n2)cccc1-n1ncc2cc(C(C)(C)C)cc(F)c2c1=O [Compound 7, 6-tert-butyl-8-fluoro-2-[2-methyl-3-[1-methyl-5-[[5-(morpholine-4-carbonyl)pyridin-2-yl]amino]-6-oxopyridazin-3-yl]phenyl]phthalazin-1-one]
4.24	Cn1nc(-c2cccc(N3CCOc4cc(C(C)(C)C)ccc4C3=O)c2CO)cc(Nc2ccc(S(C)(=O)=O)cn2)c1=O [Compound 9, 8-tert-butyl-4-[2-(hydroxymethyl)-3-[1-methyl-5-[(5-methylsulfonylpyridin-2-yl)amino]-6-oxopyridazin-3-yl]phenyl]-2,3-dihydro-1,4-benzoxazepin-5-one]
1.77	Cn1nc(-c2cccc(N3CCOc4cc(C(C)(C)C)ccc4C3=O)c2CO)cc(Nc2ccc(C(=O)N3CCOCC3)cn2)c1=O [Compound 8, 8-tert-butyl-4-[2-(hydroxymethyl)-3-[1-methyl-5-[[5-(morpholine-4-carbonyl)pyridin-2-yl]amino]-6-oxopyridazin-3-yl]phenyl]-2,3-dihydro-1,4-benzoxazepin-5-one]
1.12	Cn1nc(-c2cccc(-n3ccc4cc(C(C)(C)C#N)cc(F)c4c3=O)c2CO)cc(Nc2ccc(OC(C)(C)CO)cn2)c1=O [Compound 2, 2-[8-fluoro-2-[2-(hydroxymethyl)-3-[5-[[5-(1-hydroxy-2-methylpropan-2-yl)oxypyridin-2-yl]amino]-1-methyl-6-oxopyridazin-3-yl]phenyl]-1-oxoisoquinolin-6-yl]-2-methylpropanenitrile]
